{"source": "ChEMBL document CHEMBL4350989", "about": "“Discovery of 2,4-diarylaminopyrimidine derivatives bearing dithiocarbamate moiety as novel FAK inhibitors with antitumor and anti-angiogenesis activities” (Eur J Med Chem, 2019)", "key": {"MCF7 [1]": {"system": "MCF7", "experiment": "Induction of apoptosis in human MCF7 cells assessed as necrotic cells at 0.05 uM after 24 hrs by Annexin-V and 7-AAD staining based flow cytometric analysis (reference value: 0.16%)", "assay_type": "functional"}, "HCT-116 [2]": {"system": "HCT-116", "experiment": "Induction of apoptosis in human HCT116 cells assessed as late apoptotic cells at 0.1 uM after 24 hrs by Annexin-V and 7-AAD staining based flow cytometric analysis (reference value: 2.63%)", "assay_type": "functional"}, "MCF7 [3]": {"system": "MCF7", "experiment": "Induction of apoptosis in human MCF7 cells assessed as late apoptotic cells at 0.005 uM after 24 hrs by Annexin-V and 7-AAD staining based flow cytometric analysis (reference value: 7.63%)", "assay_type": "functional"}, "HCT-116 [4]": {"system": "HCT-116", "experiment": "Induction of apoptosis in human HCT116 cells assessed as viable cells at 0.1 uM after 24 hrs by Annexin-V and 7-AAD staining based flow cytometric analysis (reference value: 88.6%)", "assay_type": "functional", "conditions": "HCT-116, 24 h, read-out: Activity"}, "MCF7 [5]": {"system": "MCF7", "experiment": "Induction of cell cycle arrest in human MCF7 cells assessed as accumulation at S phase at 0.05 uM after 24 hrs by 7-AAD staining-based flow cytometric analysis (reference value: 26.07%)", "assay_type": "functional"}, "HCT-116 [6]": {"system": "HCT-116", "experiment": "Induction of cell cycle arrest in human HCT116 cells assessed as accumulation at S phase at 0.005 uM after 24 hrs by 7-AAD staining-based flow cytometric analysis (reference value: 37.20%)", "assay_type": "functional"}, "MCF7 [7]": {"system": "MCF7", "experiment": "Induction of apoptosis in human MCF7 cells assessed as late apoptotic cells at 0.01 uM after 24 hrs by Annexin-V and 7-AAD staining based flow cytometric analysis (reference value: 7.63%)", "assay_type": "functional"}, "MCF7 [8]": {"system": "MCF7", "experiment": "Antiproliferative activity against human MCF7 cells overexpressing FAK assessed as reduction in cell viability after 72 hrs by MTS assay", "conditions": "MCF7, 72 h"}, "MCF7 [9]": {"system": "MCF7", "experiment": "Induction of apoptosis in human MCF7 cells assessed as early apoptotic cells at 0.01 uM after 24 hrs by Annexin-V and 7-AAD staining based flow cytometric analysis (reference value: 2.04%)", "assay_type": "functional"}, "HCT-116 [10]": {"system": "HCT-116", "experiment": "Induction of cell cycle arrest in human HCT116 cells assessed as accumulation at S phase at 0.05 uM after 24 hrs by 7-AAD staining-based flow cytometric analysis (reference value: 37.20%)", "assay_type": "functional"}, "PC-3": {"system": "PC-3", "experiment": "Antiproliferative activity against human PC3 cells overexpressing FAK assessed as reduction in cell viability after 72 hrs by MTS assay", "conditions": "PC-3, 72 h"}, "HCT-116 [11]": {"system": "HCT-116", "experiment": "Induction of cell cycle arrest in human HCT116 cells assessed as accumulation at G0/G1 phase at 0.05 uM after 24 hrs by 7-AAD staining-based flow cytometric analysis (reference value: 50.53%)", "assay_type": "functional"}, "MCF7 [12]": {"system": "MCF7", "experiment": "Induction of cell cycle arrest in human MCF7 cells assessed as increase in accumulation at G2/M phase after 24 hrs by 7-AAD staining-based flow cytometric analysis", "assay_type": "functional"}, "HCT-116 [13]": {"system": "HCT-116", "experiment": "Induction of cell cycle arrest in human HCT116 cells assessed as accumulation at G2/M phase at 0.005 uM after 24 hrs by 7-AAD staining-based flow cytometric analysis (reference value: 12.26%)", "assay_type": "functional"}, "HCT-116 [14]": {"system": "HCT-116", "experiment": "Induction of apoptosis in human HCT116 cells assessed as viable cells at 0.005 uM after 24 hrs by Annexin-V and 7-AAD staining based flow cytometric analysis (reference value: 88.6%)", "assay_type": "functional", "conditions": "HCT-116, 24 h, read-out: Activity"}, "MCF7 [15]": {"system": "MCF7", "experiment": "Induction of cell cycle arrest in human MCF7 cells assessed as accumulation at G2/M phase at 0.005 uM after 24 hrs by 7-AAD staining-based flow cytometric analysis (reference value: 11.48%)", "assay_type": "functional"}, "HCT-116 [16]": {"system": "HCT-116", "experiment": "Induction of apoptosis in human HCT116 cells assessed as late apoptotic cells at 0.005 uM after 24 hrs by Annexin-V and 7-AAD staining based flow cytometric analysis (reference value: 2.63%)", "assay_type": "functional"}, "HCT-116 [17]": {"system": "HCT-116", "experiment": "Antiproliferative activity against human HCT116 cells overexpressing FAK assessed as reduction in cell viability after 72 hrs by MTS assay", "conditions": "HCT-116, 72 h"}, "U-87 MG": {"system": "U-87 MG", "experiment": "Antiproliferative activity against human U87MG cells overexpressing FAK assessed as reduction in cell viability after 72 hrs by MTS assay"}, "HCT-116 [18]": {"system": "HCT-116", "experiment": "Induction of cell cycle arrest in human HCT116 cells assessed as increase in accumulation at G2/M phase after 24 hrs by 7-AAD staining-based flow cytometric analysis", "assay_type": "functional"}, "HCT-116 [19]": {"system": "HCT-116", "experiment": "Induction of apoptosis in human HCT116 cells assessed as necrotic cells at 0.005 uM after 24 hrs by Annexin-V and 7-AAD staining based flow cytometric analysis (reference value: 0.68%)", "assay_type": "functional"}, "HCT-116 [20]": {"system": "HCT-116", "experiment": "Induction of apoptosis in human HCT116 cells assessed as early apoptotic cells at 0.1 uM after 24 hrs by Annexin-V and 7-AAD staining based flow cytometric analysis ((reference value: 8.11%)", "assay_type": "functional"}, "MCF7 [21]": {"system": "MCF7", "experiment": "Induction of cell cycle arrest in human MCF7 cells assessed as accumulation at G0/G1 phase at 0.005 uM after 24 hrs by 7-AAD staining-based flow cytometric analysis (reference value: 62.45%)", "assay_type": "functional"}, "HCT-116 [22]": {"system": "HCT-116", "experiment": "Induction of apoptosis in human HCT116 cells assessed as late apoptotic cells at 0.05 uM after 24 hrs by Annexin-V and 7-AAD staining based flow cytometric analysis (reference value: 2.63%)", "assay_type": "functional"}, "MCF7 [23]": {"system": "MCF7", "experiment": "Induction of cell cycle arrest in human MCF7 cells assessed as accumulation at G0/G1 phase at 0.05 uM after 24 hrs by 7-AAD staining-based flow cytometric analysis (reference value: 62.45%)", "assay_type": "functional"}, "HCT-116 [24]": {"system": "HCT-116", "experiment": "Induction of cell cycle arrest in human HCT116 cells assessed as accumulation at G0/G1 phase at 0.005 uM after 24 hrs by 7-AAD staining-based flow cytometric analysis (reference value: 50.53%)", "assay_type": "functional"}, "HCT-116 [25]": {"system": "HCT-116", "experiment": "Induction of apoptosis in human HCT116 cells after 24 hrs by Annexin-V and 7-AAD staining based flow cytometric analysis", "assay_type": "functional, cell-based"}, "HCT-116 [26]": {"system": "HCT-116", "experiment": "Induction of apoptosis in human HCT116 cells assessed as necrotic cells at 0.05 uM after 24 hrs by Annexin-V and 7-AAD staining based flow cytometric analysis (reference value: 0.68%)", "assay_type": "functional"}, "MCF7 [27]": {"system": "MCF7", "experiment": "Induction of cell cycle arrest in human MCF7 cells assessed as accumulation at G2/M phase at 0.01 uM after 24 hrs by 7-AAD staining-based flow cytometric analysis (reference value: 11.48%)", "assay_type": "functional"}, "Homo sapiens [28]": {"organism": "Homo sapiens", "experiment": "Induction of apoptosis in human […] after 24 hrs by Annexin-V and 7-AAD staining based flow cytometric analysis", "assay_type": "functional, cell-based"}, "HCT-116 [29]": {"system": "HCT-116", "experiment": "Induction of apoptosis in human HCT116 cells assessed as early apoptotic cells at 0.05 uM after 24 hrs by Annexin-V and 7-AAD staining based flow cytometric analysis (reference value: 8.11%)", "assay_type": "functional"}, "Homo sapiens [30]": {"organism": "Homo sapiens", "conditions": "0.05 to 0.1 uM", "description": "Antimigratory activity against human MCF7 cells assessed as reduction in cell migration at 0.05 to 0.1 uM incubated for 30 mins and measured after 24 hrs by crystal violet staining based inverted microscopic analysis"}, "MCF7 [31]": {"system": "MCF7", "experiment": "Induction of apoptosis in human MCF7 cells assessed as early apoptotic cells at 0.05 uM after 24 hrs by Annexin-V and 7-AAD staining based flow cytometric analysis (reference value: 2.04%)", "assay_type": "functional"}, "MCF7 [32]": {"system": "MCF7", "experiment": "Induction of cell cycle arrest in human MCF7 cells assessed as accumulation at S phase at 0.005 uM after 24 hrs by 7-AAD staining-based flow cytometric analysis (reference value: 26.07%)", "assay_type": "functional"}}, "note": "Calls of active or inactive are those of the source. No cut-off for these calls is given here.", "data": [{"smiles": "CNC(=O)c1ccccc1Nc1nc(Nc2ccc(C(=O)N3CCN(C(=S)SCCN(C)C)CC3)cc2)ncc1C(F)(F)F", "values": [{"measurement": "Activity", "setting": "MCF7 [1]", "result": 0.56, "unit": "%"}, {"measurement": "Activity", "setting": "HCT-116 [2]", "result": 0.16, "unit": "%"}, {"measurement": "Activity", "setting": "MCF7 [3]", "result": 16.5, "unit": "%"}, {"measurement": "viability at 0.1 µM", "setting": "HCT-116 [4]", "result": 78.4, "unit": "%"}, {"measurement": "Activity", "setting": "MCF7 [5]", "result": 7.2, "unit": "%"}, {"measurement": "Activity", "setting": "HCT-116 [6]", "result": 41.86, "unit": "%"}, {"measurement": "Activity", "setting": "MCF7 [7]", "result": 21.4, "unit": "%"}, {"measurement": "IC50", "setting": "MCF7 [8]", "result": 0.02, "unit": "µM"}, {"measurement": "Activity", "setting": "MCF7 [9]", "result": 6.95, "unit": "%"}, {"measurement": "Activity", "setting": "HCT-116 [10]", "result": 9.05, "unit": "%"}, {"measurement": "IC50", "setting": "PC-3", "result": 0.03, "unit": "µM"}, {"measurement": "Activity", "setting": "HCT-116 [11]", "result": 3.4, "unit": "%"}, {"measurement": "Activity", "setting": "MCF7 [12]", "result": "Dose-dependent effect"}, {"measurement": "Activity", "setting": "HCT-116 [13]", "result": 18.38, "unit": "%"}, {"measurement": "viability at 0.005 µM", "setting": "HCT-116 [14]", "result": 82.4, "unit": "%"}, {"measurement": "Activity", "setting": "MCF7 [15]", "result": 36.67, "unit": "%"}, {"measurement": "Activity", "setting": "HCT-116 [16]", "result": 1.42, "unit": "%"}, {"measurement": "IC50", "setting": "HCT-116 [17]", "result": 0.001, "unit": "µM"}, {"measurement": "IC50", "setting": "U-87 MG", "result": 0.06, "unit": "µM"}, {"measurement": "Activity", "setting": "HCT-116 [18]", "result": "Dose-dependent effect"}, {"measurement": "Activity", "setting": "HCT-116 [19]", "result": 0.2, "unit": "%"}, {"measurement": "Activity", "setting": "HCT-116 [20]", "result": 21.5, "unit": "%"}, {"measurement": "Activity", "setting": "MCF7 [21]", "result": 41.93, "unit": "%"}, {"measurement": "Activity", "setting": "HCT-116 [22]", "result": 1.68, "unit": "%"}, {"measurement": "Activity", "setting": "MCF7 [23]", "result": 6.72, "unit": "%"}, {"measurement": "Activity", "setting": "HCT-116 [24]", "result": 39.76, "unit": "%"}, {"measurement": "Activity", "setting": "HCT-116 [25]", "result": "Dose-dependent effect"}, {"measurement": "Activity", "setting": "HCT-116 [26]", "result": 0.29, "unit": "%"}, {"measurement": "Activity", "setting": "MCF7 [27]", "result": 81.73, "unit": "%"}, {"measurement": "Activity", "setting": "Homo sapiens [28]", "result": "Dose-dependent effect"}, {"measurement": "Activity", "setting": "HCT-116 [29]", "result": 18.7, "unit": "%"}, {"measurement": "inhibition", "setting": "Homo sapiens [30]", "result": "Active"}, {"measurement": "Activity", "setting": "MCF7 [31]", "result": 13.7, "unit": "%"}, {"measurement": "Activity", "setting": "MCF7 [32]", "result": 21.4, "unit": "%"}]}]}
